The values below come from article PMC3391913, “Cellular Immune Reactions of the Sunn Pest, Eurygaster integriceps, to the Entomopathogenic Fungus, Beauveria bassiana and Its Secondary Metabolites” (Journal of Insect Science, 2011).

For this assay, the system named is T1, phenoloxidase (PO).
T1 construct: gene prophenoloxidase; native, unpurified hemocyte lysate supernatant of adults; bands of 46 and 59 kDa on native PAGE
The experiment in a line: spectrophotometric phenoloxidase assay at […] nm, fit in SigmaPlot. The following applies: control insects without fungal metabolite; hemocyte lysate; 3-10 mM substrate; phosphate buffer pH 6.5; 30 °C. Format: biochemical, Eurygaster integriceps.

As to `N[C@@H](Cc1ccc(O)c(O)c1)C(=O)O` [L-dihydroxyphenylalanine], the Michaelis constant (Km) came out at 1630 µM.

As a reminder, the Km is the concentration of substrate that gives half-maximal velocity.
